Our source for the melting point values is a melting point compilation (Tetko et al.; mined from patent text by program, amines drawn as free bases though some values may be those of a salt).

Each structure is given as a SMILES string. A value given as a limit tells only on which side of the number the result lay.

`CC(C)(Cc1ccccc1)C(NC(=O)c1cc(Cl)cc(Cl)c1)Nc1c(Nc2cccnc2)c(=O)c1=O` (centres undefined) came in with a melting point of 197 to 198 °C.

With `Cn1nnnc1-c1ccc(CCl)cc1`, the melting point was 90 to 92 °C.

`CCc1c(C(=O)NNC(=O)C(O)c2cc(F)cc(F)c2)ccc(O)c1C` (centres undefined): the melting point came to 187 °C. As to `COC(=O)CCC#Cc1ccc(C(F)(F)F)cc1N`, the melting point was 42 °C. For the molecule `COC(=O)C1CC(c2ccc(OC)c(OC)c2)=NO1` (centres undefined), the melting point fell in the range of 106 to 108 °C. The result for `CC1CC(=O)NN=C1c1ccc(NC2=NCCN2)c(Br)c1` (centres undefined) reads 265 to 267 °C. Take `CCON=CNC(=O)c1ccc(C2=NOC(c3cc(Cl)cc(Cl)c3)(C(F)(F)F)C2)cc1C` (centres undefined): the melting point lay within 143 to 146 °C. The molecule `CCOC(=O)c1cn(C2CCCCC2)nc1O` showed a melting point of 91 to 92 °C. In the case of `O=C(O)COc1nn(Cc2ccccc2)cc1-c1ccccc1`, the melting point is 132 to 133 °C. Regarding `N#Cc1c2c(c3c(c1N1CCCC1)CCc1ccccc1-3)-c1ccccc1C2`, the melting point fell in the range of 220 to 222 °C.

On to `COC(=O)CC1CCc2cc(OC)ccc2C1=O` (centres undefined), for which the melting point lay in the range of 110 to 112 °C.

`Cc1oc(-c2ccco2)nc1COc1ccc(Cn2cc(CC(=O)O)c(-c3ccccc3)n2)cn1` yielded a melting point of 135 to 136 °C. On to `COc1cccc(N2C(=O)C3(CCCCO3)C(=O)c3cccnc32)c1` (centres undefined), for which the melting point fell in the range of 233 to 236 °C. With `COc1ccc2c(c1)CN(C(=O)N(C)C)N=C2Cc1c(Cl)cncc1Cl` the figure was 160 to 162 °C. As for `COC(=O)c1cccc(-c2nc(CO)cs2)c1`, the melting point was in the range of 115 to 117 °C. In the case of `O=C(O)c1ccc(COCc2csc3nc(C(=O)NCc4ccc(Cl)c(Cl)c4)[nH]c(=O)c23)cc1`, the melting point lay in the range of 252 to 253 °C. With `Cn1cnc2c(cnn2-c2ncc(C(F)(F)F)cc2Cl)c1=O`, the melting point came to 253 °C. With `Nc1ccc(S(=O)(=O)c2cc(C3CC3)nc(N3CCCC3)c2)cc1` the figure was 216 to 218 °C; with `COC(=O)C(C(=O)N1CCOCC1)C(c1ccccc1)c1cc2cc(Br)ccc2nc1OC` (centres undefined), 206 to 208 °C; with `CCCCCN1C(=O)C(c2ccc3c(c2)OCO3)c2cccnc21` (centres undefined), 75 to 77 °C.

The molecule `CN(C)Cc1ccc(-c2cc3c(Nc4ccc(OCc5ccccc5)cc4)ncnc3[nH]2)cc1` had a melting point of 272 to 274 °C. With `COc1ccc(-c2ccc(N(C)C)cc2)cc1C=O` the figure was 113 to 115 °C. For the molecule `C/C(O)=C(\C#N)C(=O)Sc1ccccc1`, the melting point was 106 to 108 °C. `COc1cc(-c2csc(C)n2)cc2oc(=O)c(C)c(C)c12` yielded a melting point of 149 to 150 °C. The result for `O=S1NC(CCCc2ccc3ccccc3c2)=NO1` (centres undefined) reads 139 to 140 °C; that for `O=C(O)CCCc1ccc(NS(=O)(=O)c2ccc(Cl)c(Cl)c2)cn1`, 193 to 194 °C.

`C=C(CN(C)C)C(O)c1ncc2c(c1O)COC2C1CCCCC1` (centres undefined) displayed a melting point of 180 to 184 °C. With `COc1ccc(C=O)c(F)c1OC`, the melting point fell in the range of 52 to 54 °C. As for `COc1ccccc1-n1nnc2cc(F)c(NC(C)=O)cc21`, the melting point fell in the range of 174 to 175 °C. With `CC(=O)Nc1ccc(OC(C)=O)c2cnsc12` the figure was 215 to 216 °C. With `COC(=O)CCc1ccc(N2C(=O)CN(c3ccc(C#N)cc3)C2=O)cc1` the figure was 188 to 190 °C; with `CCn1cc(C(=O)O)c(=O)cc1-c1c(Cl)cccc1Cl`, 200 to 201 °C.

Consider `CCOc1cc2ncc(C#N)c(Nc3ccc4c(c3)CCC4)c2cc1OCC`, for which the melting point was in the range of 85 to 88 °C. The result for `OC(CNCCc1cc(Br)sc1Br)c1ccccc1` (centres undefined) reads 94 °C. On to `CC(=O)c1c(O)c(=O)[nH]c2cc(Cl)ccc2c1=O`, for which the melting point was 254 to 256 °C. For the molecule `COC12CC(CCOC(=O)c3cncc(Br)c3)CN(C)C1Cc1cn(C)c3cccc2c13` (centres undefined), the melting point was in the range of 187 to 190 °C. `CCOC(=O)C1C(c2ccc(OC)cc2)=NCC1c1ccc2c(c1)OCO2` (centres undefined) came in with a melting point of 80 to 81 °C. For the molecule `O=C(Cc1ccncc1)c1ccc(Cl)cc1`, the melting point lay within 95.5 to 97.3 °C.

As for `CN1CC=C(c2c[nH]c3ccc(Sc4ccccc4)cc23)CC1`, the melting point fell in the range of 225 to 228 °C. With `COC1CCC(=O)N1S(=O)(=O)C=Cc1ccccc1` (centres undefined) the figure was 98 to 99 °C. In turn, `Cc1cn(CC#CCN2CCCC2=O)cn1` gave a melting point of 134 to 137 °C.

Molecule `Fc1ccc2c(-c3cccc(OC[C@@H]4CO4)c3)noc2c1` showed a melting point of 83 to 84 °C. The result for `O=C(O)c1ccc(Cl)c2c1NCCS2` reads 220 °C; that for `CCOC(=O)c1cc(-c2ccc(N)cc2)cnc1C`, 137 to 138 °C. Molecule `CCCOC(=O)C1=C(N)NC(C)=C(C(=O)OCC)C1c1cccc([N+](=O)[O-])c1` (centres undefined) yielded a melting point of 168 °C. The result for `CN1CC(OC(=O)C(c2ccccc2)c2ccccc2)CNC1=N[N+](=O)[O-]` (centres undefined) reads 187 °C; that for `CCOC(=O)Cc1ccc(Cc2n[nH]c3c2c(=O)n(-c2ccccc2)c2ncccc32)cc1`, 263 to 264 °C. The result for `O=C(O)C1=Cc2cc(Oc3ccc(Cl)cc3)ccc2OC1C(F)(F)F` (centres undefined) reads 140 to 142 °C.

`O=[N+]([O-])c1ccc(Cn2c(-c3ccc4c(c3)OCO4)nc3ccccc32)cc1`: the melting point was 172 to 174 °C. The result for `CCc1nn(CCNS(=O)(=O)c2cn(C)cn2)c(CC)c1Cc1cc(Cl)cc(Cl)c1` reads 172 to 174 °C; that for `CNC(=O)Oc1ccc2onc(NCCN3CCOCC3)c2c1`, 135 to 136 °C. The result for `O=C(/C=C/c1ccc(N2CCOCC2)cc1)CC(=O)/C=C/c1ccc2cc[nH]c2c1` reads 93 to 97 °C; that for `NS(=O)(=O)c1cccc(-c2noc(-c3cnn4c(C5CC5)cc(-c5ccc(C(F)(F)F)cc5)nc34)n2)c1`, 277 °C. With `CC(C)C(C)(C#N)N1C(=O)c2cc3ccccc3nc2C1=O` (centres undefined) the figure was 195 to 196 °C; with `CS(=O)(=O)NCc1ccc(-n2c(-c3cccnc3N)nc3cc(-c4cccnc4)cnc32)cc1`, 127 to 129 °C. `COc1cc(C(C)=O)ccc1OCCN1CCC(C(c2ccc(F)cc2)c2ccc(F)cc2)CC1`: the melting point lay in the range of 129 to 131 °C.

`CCOC(=O)c1cn(C2CC2)c2cc(N3C[C@@H](C)N[C@@H](C)C3)c(F)c(N)c2c1=O` came in with a melting point of 194 to 196 °C.

For `CCCNc1nc(OCC)nc2cscc12`, the melting point lay in the range of 140 to 142 °C. With `CSc1nnc(CNc2c(C)csc2C)n1C` the figure was 92 to 96 °C. Regarding `CC(C)c1nn(-c2ccc(C(F)(F)F)nn2)cc1CCCO`, the melting point lay in the range of 113 to 114 °C.

For `COC(=O)c1ccccc1S(=O)(=O)NC(=O)Nc1nc(OC)cc(OC(F)(F)F)n1`, the melting point is 141 to 143 °C.

Turning to `O=C(N=C1CCCN1Cc1ccccc1)Nc1cccc(Cl)c1`, the melting point lay in the range of 91 to 93 °C. Take `Clc1ccc2nc(-c3ccccc3)n(CCCN3CCN(C(c4ccccc4)c4ccccc4)CC3)c2c1`: the melting point amounted to 198 °C.

`COc1cc(CN2CCN(c3ccc(C(=O)NC4CC4)cc3C)CC2)cc2c1OCC(=O)N2` yielded a melting point of 220 to 228 °C. In the case of `CC1(C)Cc2cc3c(cc2O1)OCC31C(=O)N(CC(=O)Nc2ccccc2F)c2cccc(-c3cncnc3)c21` (centres undefined), the melting point was greater than 250 °C. `COCCCNc1cc(C(Sc2ccc(Cl)cc2)c2cc(F)ccc2F)c(Cl)cn1` (centres undefined) came in with a melting point of 146 to 148 °C. With `CC(=O)C(=Cc1ccc(C(F)(F)F)cc1)C(C)=O` the figure was 46 to 48 °C; with `NC1=C(N=O)C(=O)N2CCN=C2N1Cc1ccc(Cl)cc1`, 238 to 241 °C; with `Cc1ccc(Cc2cnc(NCCCCNc3ccccn3)[nH]c2=O)cn1`, 184 °C.

`CS(=O)(=O)Nc1ccc([C@@H]2CCC(=O)O2)cc1` had a melting point of 101 to 102 °C.

Regarding `C=CCOC(=O)c1cc(OCC=C)c(OCC=C)c(S(C)(=O)=O)c1`, the melting point was in the range of 78 to 80 °C. As for `NC(=O)CCN1CCN(C(=O)c2cc(C(F)(F)F)cc(C(F)(F)F)c2)[C@H](Cc2c[nH]c3ccccc23)C1`, the melting point was 80 to 100 °C. With `CCc1nn(CC(=O)O)c(CC)c1Oc1cc(Cl)cc(Cl)c1` the figure was 157 to 158 °C; with `CC1(C(O)C(Cc2ccc(Cl)cc2)n2cncn2)COCOC1` (centres undefined), 152 to 154 °C. With `CCCn1cnc2c1c1nnc(-c3ccccc3)n1c(=O)n2CCC` the figure was 215 to 217 °C. Turning to `Cc1ccc(-c2ccc(Cl)c(C(=O)O)n2)cc1C(=O)NCC1CCCCCC1`, the melting point was 177 to 178 °C. With `COC(=O)c1cc(C(=O)NCCCO)c2cc(Cc3ccc(F)cc3)cnc2c1O` the figure was 167 to 168 °C; with `O=C(Cl)c1cccc(C(=O)Cl)c1[N+](=O)[O-]`, 129 to 132 °C; with `Cc1ccnc2c1C(=O)CC(c1ccsc1)C2` (centres undefined), 92 to 93 °C. On to `CC1=C(c2ccccc2)C(=O)N(C(C)(C)c2cc(Cl)c(F)c(Cl)c2)C1`, for which the melting point lay in the range of 164 to 167 °C. In turn, `CCOC(=O)C(C#N)=NOC(=O)Oc1cc(Cl)c(Cl)cc1Cl` yielded a melting point of 101 to 103 °C. The result for `CC(C)(C)c1cc(NC=O)n[nH]1` reads 204 to 206 °C.

The molecule `COc1cc2c(cc1OCc1ccccc1)CCCC(C(=O)N1CCN(C(=O)c3cc(OC)c(OC)c(OC)c3)CC1)=C2` came in with a melting point of 140 to 142 °C. The result for `CN=C(NS(=O)(=O)c1ccc(C)cc1)N1CCc2nc(N)sc2C1` reads 206 to 208 °C. With `N#CNC(=S)Nc1ccc(C#N)cc1` the figure was greater than 250 °C; with `O=C(NC(NCCc1ccccc1)C(Cl)(Cl)Cl)c1ccncc1` (centres undefined), 115 to 117 °C. The result for `O=C1CCC(c2ccc(-c3ccc(=O)[nH]n3)cc2)=NN1` reads greater than 250 °C; that for `Cc1nc(N2CCN(Cc3cccc4cccnc34)C2=O)sc1C(=O)NCc1cccnc1`, 225 to 228 °C; that for `COc1cc2c(cc1Nc1ncc(Cl)c(N[C@H]3[C@@H](C(N)=O)[C@@H]4C=C[C@H]3C4)n1)CCN(CC(=O)N1CCN(C)CC1)CC2`, 190 °C.

One may read the melting point as the temperature, or range, at which the solid turns liquid.
